Usually pIC50 stands for −log10 of the IC50, conventionally taken in molar units. Low readings indicate a high IC50, high ones a low IC50.

pIC50: −log10 of the molar value. Structures can show the parent of a compound that is named as a salt.

The values below come from patent publication US10047096B2, “Substituted pyridobenzodiazepinone-derivatives and use thereof” (Bayer Pharma Aktiengesellschaft, priority 2014, dated 2018).

Sequence of human PDGFRβ (P09619 561-1106): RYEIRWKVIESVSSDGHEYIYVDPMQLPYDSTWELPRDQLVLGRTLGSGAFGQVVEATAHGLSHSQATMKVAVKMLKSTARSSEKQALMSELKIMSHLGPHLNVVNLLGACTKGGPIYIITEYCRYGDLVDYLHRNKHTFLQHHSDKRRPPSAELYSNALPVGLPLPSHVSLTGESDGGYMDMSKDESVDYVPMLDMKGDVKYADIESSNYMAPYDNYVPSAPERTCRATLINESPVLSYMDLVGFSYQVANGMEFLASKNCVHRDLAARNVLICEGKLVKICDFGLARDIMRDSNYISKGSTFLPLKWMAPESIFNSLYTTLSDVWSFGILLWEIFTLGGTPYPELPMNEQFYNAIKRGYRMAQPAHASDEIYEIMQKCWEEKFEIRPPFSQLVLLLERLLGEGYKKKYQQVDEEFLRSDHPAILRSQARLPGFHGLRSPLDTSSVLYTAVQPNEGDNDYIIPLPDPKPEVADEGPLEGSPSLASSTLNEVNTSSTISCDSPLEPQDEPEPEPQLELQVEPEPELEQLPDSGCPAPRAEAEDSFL

For one test, the target named is human PDGFRβ (Homo sapiens (Human), UniProt P09619). As to the kind of experiment: PDGFRβ kinase assay (PDGFRβ-HTRF). To be noted: 10 μM ATP; some mean values from multiple determinations. It counts as biochemical. The method, boiled down:
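GST-fused human PDGFRβ fragment (R561-L1106) from Sf9 cells was preincubated 15 min with compound in 50 mM HEPES pH 7.5, 10 mM MgCl2, 2.5 mM DTT, 0.01% Triton X-100; substrate was biotinylated poly-Glu,Tyr (4:1).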
`CCCCN(CC)Cc1ccc2c(c1)NC(=O)c1c(Nc3cc(O)c(C)cc3F)ccnc1N2` [Example 53, 8-{[Butyl(ethyl)amino]methyl}-4-[(2-fluoro-5-hydroxy-4-methylphenyl)amino]-6,11-dihydro-5H-pyrido[2,3-b][1,5]benzodiazepin-5-one]: the pIC50 was 9.02. Same read-out and setting: the value for `Cc1cc(F)c(Nc2ccnc3c2C(=O)Nc2cc(CN4CCC(N)CC4)ccc2N3)cc1O` [Example 218, 8-[(4-Aminopiperidin-1-yl)methyl]-4-[(2-fluoro-5-hydroxy-4-methylphenyl)amino]-6,11-dihydro-5H-pyrido[2,3-b][1,5]benzodiazepin-5-one] was 8.97; that for `CCN(Cc1ccc2c(c1)NC(=O)c1c(Nc3cc(O)c(C)cc3F)ccnc1N2)CC(C)O` (single isomer, unassigned; ent-8) [Example 205, ent-8-{[Ethyl(2-hydroxypropyl)amino]methyl}-4-[(2-fluoro-5-hydroxy-4-methylphenyl)amino]-6,11-dihydro-5H-pyrido[2,3-b][1,5]benzodiazepin-5-one (Enantiomer 1)] was 8.75; that for `Cc1cc(F)c(Nc2ccnc3c2C(=O)Nc2cc(CN)ccc2N3)cc1O` [Example 87, 8-(Aminomethyl)-4-[(2-fluoro-5-hydroxy-4-methylphenyl)amino]-6,11-dihydro-5H-pyrido[2,3-b][1,5]benzodiazepin-5-one] was 8.85. The molecule `Cc1ccc(O)cc1Nc1ccnc2c1C(=O)Nc1cc(CNCCN3CCCC3=O)ccc1N2` [Example 141] had a pIC50 of 8.46. Still for that read-out and setting: the value for `Cc1ccc(O)cc1Nc1ccnc2c1C(=O)Nc1cc(CNCc3cccnc3)ccc1N2` [Example 146] was 8.12. Molecule `Cc1ccc(O)cc1Nc1ccnc2c1C(=O)Nc1cc(CNC(C)(C)CN3CCCC3)ccc1N2` [Example 131] gave a negative-log IC50 (pIC50) of 8.69.

Molecule `CCCc1ccc(Nc2ccnc3c2C(=O)Nc2cc(C#N)ccc2N3)cc1O` [Example 2, 4-[(3-Hydroxy-4-propylphenyl)amino]-5-oxo-6,11-dihydro-5H-pyrido[2,3-b][1,5]benzodiazepine-8-carbonitrile] had a pIC50 of 6.06. Turning to `Cc1ccc(O)cc1Nc1ccnc2c1C(=O)Nc1cc(CNCC3CC3)ccc1N2` [Example 127], the negative-log IC50 (pIC50) was 8.45. On to `Cc1cc(F)c(Nc2ccnc3c2C(=O)Nc2cc(CN4CCN5C(=O)C(C)NC(=O)C5C4)ccc2N3)cc1O` (racemic) [Example 194, rac-8-({4-[(2-Fluoro-5-hydroxy-4-methylphenyl)amino]-5-oxo-6,11-dihydro-5H-pyrido[2,3-b][1,5]benzodiazepin-8-yl}methyl)-3-methyltetrahydro-2H-pyrazino[1,2-a]pyrazine-1,4(3H,6H)-dione], for which the pIC50 is 8.72. On the same count and under the same terms, the value for `CCn1ccc(CNCc2ccc3c(c2)NC(=O)c2c(Nc4cc(O)ccc4C)ccnc2N3)n1` [Example 103] was 8.46; that for `Cc1ccc(O)cc1Nc1ccnc2c1C(=O)Nc1cc(CNCC(F)(F)F)ccc1N2` [Example 14, 4-[(5-Hydroxy-2-methylphenyl)amino]-8-{[(2,2,2-trifluoroethyl)amino]methyl}-6,11-dihydro-5H-pyrido[2,3-b][1,5]benzodiazepin-5-one] was 8.04; that for `N#Cc1ccc2c(c1)NC(=O)c1c(Nc3cc(O)c(F)cc3F)ccnc1N2` [Example 38, 4-[(2,4-Difluoro-5-hydroxyphenyl)amino]-5-oxo-6,11-dihydro-5H-pyrido[2,3-b][1,5]benzodiazepine-8-carbonitrile] was 8.15.

The test is the same for the next values; noted with them: 10 μM ATP; some mean values from multiple determinations; hydrochloride.
Molecule `CCN(CC)Cc1ccc2c(c1)NC(=O)c1c(Nc3cc(O)c(C)cc3F)ccnc1N2` [Example 193, 8-[(Diethylamino)methyl]-4-[(2-fluoro-5-hydroxy-4-methylphenyl)amino]-6,11-dihydro-5H-pyrido[2,3-b][1,5]benzodiazepin-5-one hydrochloride] showed a negative-log IC50 (pIC50) of 8.49.
